Laboratory results reported in the supplement of paper PMC3974653.
Counter-ions that a name gives are not always drawn.

What was measured:
[1] = test system: MTT (mouse pheochromocytoma); assay: efficacy (maximal response) relative to doxorubicin = -100% and DMSO = 0%; higher = less inhibition of viability; details: (24 or 48 h)
[2] = test system: MTT (mouse pheochromocytoma); assay: IC50 of cell viability (ATP content); AC50 where efficacy is positive; details: (24 or 48 h)

Structure (SMILES) | IC50 of cell viability [2] | efficacy [1]
N=c1ccn2c(n1)O[C@H]1[C@H](O)[C@@H](CO)O[C@H]12 [Ancitabina] | 2370 nM | -68.2%
CCCCCCCCCCCCCCCC[n+]1ccccc1 [Cetylpyridinium bromide] | 10600 nM | -96.5%
CC[NH+](CC)CCCN(c1ccccc1)C1Cc2ccccc2C1 [APRINDINE HYDROCHLORIDE] | 26600 nM | -107%
O=S(=O)([O-])c1cc(O)c2c(/N=N/c3ccc(Nc4ccccc4)c4c(S(=O)(=O)[O-])cccc34)cc(S(=O)(=O)[O-])cc2c1 [ANAZOLENUM NATRICUM] | 2370 nM | -33.8%
COc1ccc(CCN2CCC(Nc3nc4ccccc4n3Cc3ccc(F)cc3)CC2)cc1 [ASTEMIZOLE] | 16800 nM | -74.8%
Oc1cc[c]([Hg][Cl])cc1 [PARA-CHLOROMERCURIPHENOL] | 2370 nM | -97.8%
Cl.Nc1c2ccccc2nc2ccccc12.O [9-Aminoacridine HCl H2O] | 21100 nM | -110%
C[C@@H]1CC[C@H]2[C@@H](C)C(=O)O[C@@H]3O[C@]4(C)CC[C@@H]1[C@@]32OO4 [Artemisinin] | 10600 nM | -62%
CCC(C(=O)O)C1OC(C(C)C(O)C(C)C(=O)C(CC)C2OC3(C=CC(O)C4(CCC(C)(C5CCC(O)(CC)C(C)O5)O4)O3)C(C)CC2C)C(C)CC1C (centres undefined) [NARASIN] | 1680 nM | -46.7%
Nc1ncn(C2C[C@H](O)[C@@H](CO)O2)c(=O)n1 (some centres undefined) | 66.8 nM | -51.6%
Sc1ncnc2[nH]cnc12 [6-Mercaptopurine monohydrate] | 21100 nM | -78.1%
ClC(Cl)(Cl)SN1C(=O)C2C\C=C/CC2C1=O (centres undefined) [Captan] | 2990 nM | -65.8%
CC(=O)Nc1ccc(NC(=S)NC(=O)c2ccc(C(C)(C)C)cc2)cc1 | 2660 nM | -56%
CC[P](CC)(CC)=[Au][S][C@@H]1OC(COC(C)=O)[C@@H](OC(C)=O)[C@H](OC(C)=O)C1OC(C)=O (some centres undefined) [Auranofin] | 2660 nM | -86.7%

Second part, led by results:

IC50 of cell viability [2] | Structure (SMILES) | efficacy [1]
53.1 nM | O=C(CCCCCCC(=O)Nc1ccccc1)NO [Suberoylanilide Hydroxamic Acid] | -43.5%
473 nM | O=C(Nc1ccc([N+](=O)[O-])cc1Cl)c1cc(Cl)ccc1O [Niclosamide] | -41.1%
8410 nM | CCc1nc(N)nc(N)c1-c1ccc(Cl)cc1 [Pyrimethamine] | -35%
640 nM | COC(=O)Nc1nc2cc(C(=O)c3ccccc3)ccc2[nH]1 [Mebendazole] | -49.2%
18800 nM | COc1cc(NCCCC(C)N)c2ncccc2c1 (centres undefined) [QUINOCIDUM] | -93.9%
2370 nM | Cc1cc(-c2ccc(/N=N/c3c(S(=O)(=O)[O-])cc4cc(S(=O)(=O)[O-])cc(N)c4c3O)c(C)c2)ccc1/N=N/c1c(S(=O)(=O)[O-])cc2cc(S(=O)(=O)[O-])cc(N)c2c1O [TRYPAN BLUE] | -37.4%
15000 nM | CCCCCCCCCCCCCCCC[N+](C)(C)Cc1ccccc1.O.[Cl-] [CETALKONIUM CHLORIDE] | -56.9%
1880 nM | C[N+]12CCCC[C@@H]1CCC(=C(c1cccs1)c1cccs1)C2 (some centres undefined) [TIQUIZIUM BROMIDE] | -51.7%
453 nM | CCCCc1ccc2[nH]c(NC(=O)OC)nc2c1 [Parbendazole] | -45.1%
4220 nM | O=c1n(CC2CO2)c(=O)n(CC2CO2)c(=O)n1CC1CO1 (centres undefined) [TEROXIRONUM] | -43.7%
237 nM | COC(=O)C[C@](O)(CCCC(C)(C)O)C(=O)O[C@H]\1[C@H]2C3=CC4=C(OCO4)C=C3CCN5CCC[C@]25\C=C1OC [Homoharringtonine] | -73.7%
21100 nM | COc1cc(-c2ccc(-[n+]3nc(-c4ccccc4)nn3-c3ccc([N+](=O)[O-])cc3)c(OC)c2)ccc1-[n+]1nc(-c2ccccc2)nn1-c1ccc([N+](=O)[O-])cc1 [NITROBLUE TETRAZOLIUM CHLORIDE] | -107%
7500 nM | C\N=C1/C=C\C(\C=C1)=C(/C2=CC=C(C=C2)N(C)C)C3=CC=C(C=C3)N(C)C [METHYL VIOLET] | -70.3%
2990 nM | CC(=O)[C@]1(O)Cc2c(O)c3c(c(O)c2[C@@H](O[C@H]2C[C@H](N)[C@H](O)[C@H](C)O2)C1)C(=O)c1c(O)cccc1C3=O [CARUBICINUM] | -59.2%
2370 nM | CC1=CC(=CC=C1N)C(\C2=CC=C(N)C=C2)=C3/C=CC(=N)C=C3 [C.I. Basic Violet 14, free base] | -47.4%
4730 nM | Cl.CC[C@@]1(O)C(=O)OCC/2=C1/C=C/3N(CC4=C3N=C5C=CC(=C(CN(C)C)C5=C4)O)C2=O [TOPOTECAN HYDROCHLORIDE] | -89.7%
1500 nM | CO[C@@]12[C@H](COC(N)=O)C\3=C(/N1C[C@H]4N[C@@H]24)C(=O)\C(=C(N)/C3=O)C [MITOMYCIN C] | -34.6%
1880 nM | CCCCCCNC(=O)N1\C=C(F)/C(=O)NC1=O [CARMOFUR] | -56.9%
